Columns and labels:
[1] = target: CYP3A4 (Homo sapiens, UniProt P08684); assay: Cytochrome P450 (CYP450) Inhibition Assay, CYP3A4 (Vivid fluorescence, BOMCC substrate); details: human, P450 Baculosomes (recombinant CYP3A4), probe BOMCC (Vivid substrate)
[2] = test system: inactivated state of the channel of interest (sodium channel); assay: Electrophysiological assay (whole cell voltage clamp, in vitro); assay type: cell-based; details: affinity for the inactivated state of the channel of interest
Procedure, shortened: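 Whole-cell voltage clamp at ambient temperature on stably transfected cells; CsF-based pipette, pH 7.4 NaCl bath. Current blockade measured at holding potentials of −120 mV (resting, Kr) and one giving 10% availability (inactivated, Ki), held ≥10 s to equilibrate; apparent Kd calculated from fractional block.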

[3] = test system: sodium channel; assay: Guanidine influx assay (14C-guanidine radiotracer flux, in vitro); assay type: cell-based, human or rat; details: guanidine influx assay using a known cell line that expresses a sodium channel
Procedure, shortened: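 Human or rat sodium channels stably expressed in endogenous or recombinant cells, plated ~100,000 cells/well for 20-24 h at 37 °C. Cells were treated with test agent in low-sodium choline HEPES saline plus aconitine and 14C-guanidine at ambient temperature, washed, and counted by scintillation; IC50 from 4-parameter logistic fit.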

Chain of CYP3A4 (P08684 whole entry): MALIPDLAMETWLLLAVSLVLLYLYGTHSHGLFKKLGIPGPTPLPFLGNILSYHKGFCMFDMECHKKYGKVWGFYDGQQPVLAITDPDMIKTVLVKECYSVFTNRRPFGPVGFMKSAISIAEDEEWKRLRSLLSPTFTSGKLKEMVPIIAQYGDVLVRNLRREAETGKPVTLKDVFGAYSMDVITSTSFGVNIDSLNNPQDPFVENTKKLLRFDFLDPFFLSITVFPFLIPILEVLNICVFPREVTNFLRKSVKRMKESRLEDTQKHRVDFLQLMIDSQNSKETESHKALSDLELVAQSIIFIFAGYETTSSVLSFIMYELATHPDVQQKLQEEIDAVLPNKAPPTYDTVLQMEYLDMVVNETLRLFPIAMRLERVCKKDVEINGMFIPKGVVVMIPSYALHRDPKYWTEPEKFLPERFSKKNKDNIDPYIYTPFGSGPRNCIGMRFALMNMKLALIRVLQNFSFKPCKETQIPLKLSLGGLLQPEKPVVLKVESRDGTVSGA

Row | melting point [°C] | inhibition at 10 µM [1] [%] | IC50 ([3]; activity level class) [nM] | IC50 [3] [nM] | Compound | Ki [2] [nM]
1 | 120 to 123 | < 50 | 1 to 100 |  | O=C1N(Cc2ccc3c(c2)OCCO3)c2ccccc2C12COc1cc3c(cc12)OCCO3 (stereo not drawn) [Example 4.48, 1-(2,3-dihydro-1,4-benzodioxin-6-ylmethyl)-2,3-dihydrospiro[furo[2,3-g][1,4]benzodioxine-8,3′-indol]-2′(1′H)-one] | < 300
2 | 64 to 68 | > 50 | 1 to 100 |  | O=C1N(Cc2ccc(C(F)(F)F)o2)c2ccccc2[C@@]12COc1cc3c(cc12)OCCO3 [Example 4.49, (R)-1′-{[5-(trifluoromethyl)furan-2-yl]methyl}-2,3-dihydrospiro[furo[2,3-g][1,4]benzodioxine-8,3′-indol]-2′(1′H)-one] | < 300
3 | 53 to 56 | > 50 | 1 to 100 |  | O=C1N(Cc2ccc(C(F)(F)F)o2)c2ccccc2[C@]12COc1cc3c(cc12)OCCO3 [Example 4.50, (S)-1′-{[5-(trifluoromethyl)furan-2-yl]methyl}-2,3-dihydrospiro[furo[2,3-g][1,4]benzodioxine-8,3′-indol]-2′(1′H)-one] | < 300
4 | 144 to 146 | < 50 | 1 to 100 |  | O=C1N(Cc2ccccn2)c2ccccc2[C@]12COc1cc3c(cc12)OCCO3 [Example 4.51, (S)-1′-(pyridin-2-ylmethyl)-2,3-dihydrospiro[furo[2,3-g][1,4]benzodioxine-8,3′-indol]-2′(1′H)-one] | < 300
5 | 162 to 164 | > 50 | 100 to 1000 |  | O=C1N(Cc2ccc(C(F)(F)F)o2)c2ccccc2C12COc1cc3c(cc12)OCCCO3 (stereo not drawn) [Example 4.54, 1-{[5-(trifluoromethyl)furan-2-yl]methyl}-3,4-dihydro-2H-spiro[furo[2,3-h][1,5]benzodioxepine-9,3′-indol]-2′(1′H)-one] | < 300
6 | 122 to 123 | < 50 | 100 to 1000 |  | O=C1N(Cc2ccccn2)c2ccccc2C12COc1cc3c(cc12)OCCCO3 (stereo not drawn) [Example 4.55, 1′-(pyridin-2-ylmethyl)-3,4-dihydro-2H-spiro[furo[2,3-h][1,5]benzodioxepine-9,3′-indol]-2′(1′H)-one] | > 300
7 | 196 to 199 | < 50 | 100 to 1000 |  | O=C1N(Cc2ccccn2)c2cccc(-c3ccc(Oc4ccccc4)cc3)c2C12COc1cc3c(cc12)OCCO3 (stereo not drawn) [Example 4.103, 4′-(4-phenoxyphenyl)-1′-(pyridin-2-ylmethyl)-2,3-dihydrospiro[furo[2,3-g][1,4]benzodioxine-8,3′-indol]-2′(1′H)-one] | < 300
8 | 154 to 156 | < 50 | 1000 to 10000 |  | O=C1N(Cc2ccccn2)c2ccccc2[C@@]12COc1cc3c(cc12)CCO3 [Example 5.4, (3R)-1-(pyridin-2-ylmethyl)-5,6-dihydrospiro[benzo[1,2-b:5,4-b′]difuran-3,3′-indol]-2′(1′H)-one] | > 300
9 | 68 to 70 | > 50 | 1000 to 10000 |  | O=C1N(Cc2ccc(C(F)(F)F)o2)c2ccccc2[C@@]12COc1cc3c(cc12)CCO3 [Example 5.5, (3R)-1′-{[5-(trifluoromethyl)furan-2-yl]methyl}-5,6-dihydrospiro[benzo[1,2-b:5,4-b′]difuran-3,3′-indol]-2′(1′H)-one] | > 300
10 | 84 to 85 | < 50 | 1 to 100 |  | O=C1N(Cc2ccccn2)c2ccccc2[C@]12COc1cc3c(cc12)CCO3 [Example 5.6, (3S)-1′-(pyridin-2-ylmethyl)-5,6-dihydrospiro[benzo[1,2-b:5,4-b′]difuran-3,3′-indol]-2′(1′H)-one] | > 300
11 | 64 to 65 | > 50 | 1 to 100 |  | O=C1N(Cc2ccc(C(F)(F)F)o2)c2ccccc2[C@]12COc1cc3c(cc12)CCO3 [Example 5.7, (3S)-1′-{[5-(trifluoromethyl)furan-2-yl]methyl}-5,6-dihydrospiro[benzo[1,2-b:5,4-b′]difuran-3,3′-indol]-2′(1′H)-one] | < 300
12 | 102 to 104 | < 50 | 1 to 100 |  | COc1ncc(CN2C(=O)[C@@]3(COc4cc5c(cc43)OCCO5)c3ccccc32)cn1 [Example 5.17, (8S)-1′-[(2-methoxypyrimidin-5-yl)methyl]-2,3-dihydrospiro[furo[2,3-g][1,4]benzodioxine-8,3′-indol]-2′(1′H)-one] | < 300
13 | 210 to 212 | < 50 | 1 to 100 |  | O=C1N(Cc2ncccn2)c2ccccc2[C@]12COc1cc3c(cc12)OCCO3 [Example 5.18, (8S)-1′-(pyrimidin-2-ylmethyl)-2,3-dihydrospiro[furo[2,3-g][1,4]benzodioxine-8,3′-indol]-2′(1′H)-one] | < 300
14 | 129 to 130 | > 50 | 1 to 100 |  | CCCCCN1C(=O)C2(COc3cc4c(cc32)OCCO4)c2ccccc21 (stereo not drawn) [Example 8.4, 1′-pentyl-2,3-dihydrospiro[furo[2,3-g][1,4]benzodioxine-8,3′-indol]-2′(1′H)-one] | < 300
15 | 207 to 209 | < 50 | 1000 to 10000 |  | O=C1N(C[C@H]2COCCO2)c2ccccc2[C@@]12COc1cc3c(cc12)OCCO3 [Example 8.6, (8R)-1′-[(2S)-1,4-dioxan-2-ylmethyl]-2,3-dihydrospiro[furo[2,3-g][1,4]benzodioxine-8,3′-indol]-2′(1′H)-one] | > 300
16 | 207 to 210 | < 50 | 1 to 100 |  | O=C1N(C[C@@H]2COCCO2)c2ccccc2[C@]12COc1cc3c(cc12)OCCO3 [Example 8.8, (8S)-1′-[(2R)-1,4-dioxan-2-ylmethyl]-2,3-dihydrospiro[furo[2,3-g][1,4]benzodioxine-8,3′-indol]-2′(1′H)-one] | < 300
17 | 144 to 147 | < 50 | 100 to 1000 |  | O=C1N(C[C@@H]2COCCO2)c2ccccc2C12COc1cc3c(cc12)OCCCO3 (stereo partly drawn) [Example 8.12, 1′-[(2R)-1,4-dioxan-2-ylmethyl]-3,4-dihydro-2H-spiro[furo[2,3-h][1,5]benzodioxepine-9,3′-indol]-2′(1′H)-one] | > 300
18 | 111 to 112 | > 50 | 1 to 100 |  | Cc1noc2cc3c(cc12)C1(CO3)C(=O)N(Cc2ccc(C(F)(F)F)o2)c2ccccc21 (stereo not drawn) [Example 9, 3-methyl-1′-{[5-(trifluoromethyl)furan-2-yl]methyl}spiro[furo[3,2-f][1,2]benzisoxazole-5,3′-indol]-2′(1′H)-one] | < 300
19 | 158 to 160 | < 50 | 1 to 100 |  | O=C1N(Cc2ccncn2)c2ccccc2C12COc1cc3c(cc12)CCO3 (stereo not drawn) [Example 9.6, 1-(pyrimidin-4-ylmethyl)-5,6-dihydrospiro[benzo[1,2-b:5,4-b′]difuran-3,3′-indol]-2′(1′H)-one] | > 300
20 | 90 to 91 | < 50 | 1 to 100 |  | COCCOCCN1C(=O)C2(COc3cc4c(cc32)OCCO4)c2ccccc21 (stereo not drawn) [Example 9.20, 1′-[2-(2-methoxyethoxy)ethyl]-2,3-dihydrospiro[furo[2,3-g][1,4]benzodioxine-8,3′-indol]-2′(1′H)-one] | < 300
21 | 142 to 143 | > 50 | 1 to 100 |  | Cc1noc2cc3c(cc12)C1(CO3)C(=O)N(Cc2ccccn2)c2ccccc21 (stereo not drawn) [Example 9.24, 3-methyl-1′-(pyridin-2-ylmethyl)spiro[furo[3,2-f][1,2]benzisoxazole-5,3′-indol]-2′(1′H)-one] | > 300
22 | 185 to 186 | < 50 |  | 1 to 100 | Cc1nc(-c2ccc(CN3C(=O)C4(COc5cc6c(cc54)CCO6)c4ccccc43)cc2)no1 (stereo not drawn) [Example 11.14, 1′-[4-(5-methyl-1,2,4-oxadiazol-3-yl)benzyl]-5,6-dihydrospiro[benzo[1,2-b:5,4-b′]difuran-3,3′-indol]-2′(1′H)-one] | < 300
23 | 209 to 213 | > 50 |  | 1 to 100 | Cc1nc(-c2cccc(CN3C(=O)C4(COc5cc6c(cc54)CCO6)c4ccccc43)c2)no1 (stereo not drawn) [Example 11.27, 1′-[3-(5-methyl-1,2,4-oxadiazol-3-yl)benzyl]-5,6-dihydrospiro[benzo[1,2-b:5,4-b′]difuran-3,3′-indol]-2′(1′H)-one] | < 300
24 | 224 to 226 | > 50 |  | 100 to 1000 | CN(C)C(=O)c1ccc(CN2C(=O)C3(COc4cc5c(cc43)OCCO5)c3ccccc32)o1 (stereo not drawn) [Example 11.33, N,N-dimethyl-5-[(2′-oxo-2,3-dihydrospiro[furo[2,3-g][1,4]benzodioxine-8,3′-indol]-1′(2′H)-yl)methyl]furan-2-carboxamide] | < 300

From patent US8263606B2 (Xenon Pharmaceuticals Inc., priority 2008, dated 2012)
